Test results as given in patent US8895585B2, “Nicotinamide derivative or salt thereof” (FUJIFILM Corporation, priority 2010, dated 2014).

Legend:
[1] = biological target: T1, glutathione S-transferase (GST)-fused full-length human Syk protein (Homo sapiens, UniProt P43405); assay: Syk enzyme assay; format: biochemical; details: Syk enzyme assay, Test Example 1; read-out: IC50 of Syk-inhibitory activity
T1 construct: (GST)-fused full-length human Syk protein; GST (glutathione S-transferase); purchased Carna Biosciences
Summary of the method: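 IC50 values come from a time-resolved FRET readout (615 and 665 nm) of substrate phosphorylation, measured after an EDTA stop and 1 h antibody binding. The kinase reaction ran 40 min at room temperature with 27 μM ATP and 0.4 μM biotin-peptide, following a 15 min compound preincubation with baculovirus-made GST-full-length human Syk.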

THP-1 cells = assay: TNFα generation assay; format: cell-based, human; details: Homo sapiens, THP-1, THP-1 cells; Table 22; read-out: IC50 in TNFα generation assay
Summary of the method: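 Secreted TNFα in supernatant quantified by ELISA or AlphaLISA after 7 h culture on human IgG-coated wells (10 μg/ml coating). Cells were IFN-γ-differentiated THP-1 (10 ng/ml, 2 days), exposed to compound for 30 min at room temperature before plating.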

Compound	IC50 [1]	IC50 (THP-1 cells)
CCCC[C@H](CN)Nc1nc(Nc2cncc(-n3cccn3)c2)c(C(N)=O)cc1F [Example 006-294, (R)-2-((5-(1H-pyrazol-1-yl)pyridin-3-yl)amino)-6-((1-aminohexan-2-yl)amino)-5-fluoronicotinamide]	10 to 50 nM	65 to 130 nM
CCCC[C@H](CN)Nc1nc(Nc2cncc(-c3ccccc3)c2)c(C(N)=O)cc1F [Example 006-295, (R)-6-((1-aminohexan-2-yl)amino)-5-fluoro-2-((5-phenylpyridin-3-yl)amino)nicotinamide]	10 to 50 nM	130 to 200 nM
CCC[C@@H](Nc1nc(Nc2ccc(C)nc2)c(C(N)=O)cc1F)[C@H](C)N [Example 006-302, 6-(((2S,3R)-2-aminohexan-3-yl)amino)-5-fluoro-2-((6-methylpyridin-3-yl)amino)nicotinamide]	10 to 50 nM	130 to 200 nM
CC[C@@H](Nc1nc(Nc2ccnc(-c3cc(OC)ccc3F)c2)c(C(N)=O)cc1F)[C@H](C)N [Example 006-315, 6-(((2S,3R)-2-aminopentan-3-yl)amino)-5-fluoro-2-((2-(2-fluoro-5-methoxyphenyl)pyridin-4-yl)amino)nicotinamide]	< 10 nM	< 65 nM
CC(C)C[C@H](CN)Nc1nc(Nc2cncc(-c3ccccc3F)c2)c(C(N)=O)cc1F [Example 006-316, (R)-6-((1-amino-4-methylpentan-2-yl)amino)-5-fluoro-2-((5-(2-fluorophenyl)pyridin-3-yl)amino)nicotinamide]	10 to 50 nM	130 to 200 nM
COc1cccc(-c2cncc(Nc3nc(N[C@@H](CN)CC(C)C)c(F)cc3C(N)=O)c2)c1 [Example 006-317, (R)-6-((1-amino-4-methylpentan-2-yl)amino)-5-fluoro-2-((5-(3-methoxyphenyl)pyridin-3-yl)amino)nicotinamide]	< 10 nM	130 to 200 nM
COc1cccc(-c2cncc(Nc3nc(N[C@@H](CN)CC(C)C)c(F)cc3C(N)=O)c2)c1F [Example 006-318, (R)-6-((1-amino-4-methylpentan-2-yl)amino)-5-fluoro-2-((5-(2-fluoro-3-methoxyphenyl)pyridin-3-yl)amino)nicotinamide]	10 to 50 nM	130 to 200 nM
COc1ccc(F)c(-c2cc(Nc3nc(N[C@@H](CN)CC(C)C)c(F)cc3C(N)=O)ccn2)c1 [Example 006-321, (R)-6-((1-amino-4-methylpentan-2-yl)amino)-5-fluoro-2-((2-(2-fluoro-5-methoxyphenyl)pyridin-4-yl)amino)nicotinamide]	< 10 nM	130 to 200 nM
CCCC[C@H](CN)Nc1nc(Nc2ccc3c(cnn3CC)c2)c(C(N)=O)cc1F [Example 006-323, (R)-6-((1-aminohexan-2-yl)amino)-2-((1-ethyl-1H-indazol-5-yl)amino)-5-fluoronicotinamide]	< 10 nM	65 to 130 nM
CC(C)C[C@H](CN)Nc1nc(Nc2ccnc(-c3ccccc3F)c2)c(C(N)=O)cc1F [Example 006-324, (R)-6-((1-amino-4-methylpentan-2-yl)amino)-5-fluoro-2-((2-(2-fluorophenyl)pyridin-4-yl)amino)nicotinamide]	< 10 nM	130 to 200 nM
CC[C@@H](Nc1nc(Nc2ccnc(-c3ccccc3F)c2)c(C(N)=O)cc1F)[C@H](C)N [Example 006-329, 6-(((2S,3R)-2-aminopentan-3-yl)amino)-5-fluoro-2-((2-(2-fluorophenyl)pyridin-4-yl)amino)nicotinamide]	< 10 nM	< 65 nM
CC[C@@H](Nc1nc(Nc2ccnc(-c3cccc(OC)c3)c2)c(C(N)=O)cc1F)[C@H](C)N [Example 006-330, 6-(((2S,3R)-2-aminopentan-3-yl)amino)-5-fluoro-2-((2-(3-methoxyphenyl)pyridin-4-yl)amino)nicotinamide]	< 10 nM	< 65 nM
CC[C@@H](Nc1nc(Nc2ccnc(-c3ccc(OC)cc3)c2)c(C(N)=O)cc1F)[C@H](C)N [Example 006-331, 6-(((2S,3R)-2-aminopentan-3-yl)amino)-5-fluoro-2-((2-(4-methoxyphenyl)pyridin-4-yl)amino)nicotinamide]	< 10 nM	65 to 130 nM
CC[C@@H](Nc1nc(Nc2ccnc(-c3ccc(OC)cc3F)c2)c(C(N)=O)cc1F)[C@H](C)N [Example 006-332, 6-(((2S,3R)-2-aminopentan-3-yl)amino)-5-fluoro-2-((2-(2-fluoro-4-methoxyphenyl)pyridin-4-yl)amino)nicotinamide]	< 10 nM	< 65 nM
CCC[C@@H](Nc1nc(Nc2ccnc(-c3ccccc3F)c2)c(C(N)=O)cc1F)[C@H](C)N [Example 006-333, 6-(((2S,3R)-2-aminohexan-3-yl)amino)-5-fluoro-2-((2-(2-fluorophenyl)pyridin-4-yl)amino)nicotinamide]	< 10 nM	65 to 130 nM

Further lines, results first:

IC50 [1]	IC50 (THP-1 cells)	Compound
< 10 nM	65 to 130 nM	CCC[C@@H](Nc1nc(Nc2cnc(C)c(C)c2)c(C(N)=O)cc1F)[C@H](C)N [Example 006-296, 6-(((2S,3R)-2-aminohexan-3-yl)amino)-2-((5,6-dimethylpyridin-3-yl)amino)-5-fluoronicotinamide]
< 10 nM	65 to 130 nM	CCC[C@@H](Nc1nc(Nc2cncc(Cl)c2)c(C(N)=O)cc1F)[C@H](C)N [Example 006-297, 6-(((2S,3R)-2-aminohexan-3-yl)amino)-2-((5-chloropyridin-3-yl)amino)-5-fluoronicotinamide]
< 10 nM	< 65 nM	CCC[C@@H](Nc1nc(Nc2cncc(-n3nccn3)c2)c(C(N)=O)cc1F)[C@H](C)N [Example 006-298, 2-((5-(2H-1,2,3-triazol-2-yl)pyridin-3-yl)amino)-6-(((2S,3R)-2-aminohexan-3-yl)amino)-5-fluoronicotinamide]
< 10 nM	< 65 nM	CCC[C@@H](Nc1nc(Nc2ccnc(-n3ccnn3)c2)c(C(N)=O)cc1F)[C@H](C)N [Example 006-299, 2-((2-(1H-1,2,3-triazol-1-yl)pyridin-4-yl)amino)-6-(((2S,3R)-2-aminohexan-3-yl)amino)-5-fluoronicotinamide]
< 10 nM	< 65 nM	CCC[C@@H](Nc1nc(Nc2ccnc(-n3cncn3)c2)c(C(N)=O)cc1F)[C@H](C)N [Example 006-300, 2-((2-(1H-1,2,4-triazol-1-yl)pyridin-4-yl)amino)-6-(((2S,3R)-2-aminohexan-3-yl)amino)-5-fluoronicotinamide]
< 10 nM	130 to 200 nM	CCC[C@@H](Nc1nc(Nc2ccc3nc(OCCOC)ccc3c2)c(C(N)=O)cc1F)[C@H](C)N [Example 006-303, 6-(((2S,3R)-2-aminohexan-3-yl)amino)-5-fluoro-2-((2-(2-methoxyethoxy)quinolin-6-yl)amino)nicotinamide]
< 10 nM	130 to 200 nM	NCC(CCC(F)(F)F)Nc1nc(Nc2ccc3ncccc3c2)c(C(N)=O)cc1F (stereo not drawn) [Example 006-304, 6-((1-amino-5,5,5-trifluoropentan-2-yl)amino)-5-fluoro-2-((quinolin-6-yl)amino)nicotinamide]
< 10 nM	65 to 130 nM	CCC[C@@H](Nc1nc(Nc2ccc3nc(C)c(C)nc3c2)c(C(N)=O)cc1F)[C@H](C)N [Example 006-306, 6-(((2S,3R)-2-aminohexan-3-yl)amino)-2-((2,3-dimethylquinoxalin-6-yl)amino)-5-fluoronicotinamide]
< 10 nM	65 to 130 nM	CCC[C@@H](Nc1nc(Nc2cccc3ncccc23)c(C(N)=O)cc1F)[C@H](C)N [Example 006-307, 6-(((2S,3R)-2-aminohexan-3-yl)amino)-5-fluoro-2-(quinolin-5-ylamino)nicotinamide]
< 10 nM	65 to 130 nM	CCC[C@@H](Nc1nc(Nc2ccc3scnc3c2)c(C(N)=O)cc1F)[C@H](C)N [Example 006-308, 6-(((2S,3R)-2-aminohexan-3-yl)amino)-2-(benzo[d]thiazol-5-ylamino)-5-fluoronicotinamide]
< 10 nM	65 to 130 nM	CCC[C@@H](Nc1nc(Nc2ccnc(OCC)c2)c(C(N)=O)cc1F)[C@H](C)N [Example 006-309, 6-(((2S,3R)-2-aminohexan-3-yl)amino)-2-((2-ethoxypyridin-4-yl)amino)-5-fluoronicotinamide]
< 10 nM	65 to 130 nM	CCC[C@@H](Nc1nc(Nc2ccnc(OCCOC)c2)c(C(N)=O)cc1F)[C@H](C)N [Example 006-310, 6-(((2S,3R)-2-aminohexan-3-yl)amino)-5-fluoro-2-((2-(2-methoxyethoxy)pyridin-4-yl)amino)nicotinamide]
< 10 nM	65 to 130 nM	CCC[C@@H](Nc1nc(Nc2cncc(C)c2)c(C(N)=O)cc1F)[C@H](C)N [Example 006-312, 6-(((2S,3R)-2-aminohexan-3-yl)amino)-5-fluoro-2-((5-methylpyridin-3-yl)amino)nicotinamide]
< 10 nM	65 to 130 nM	CC[C@@H](Nc1nc(Nc2ccc3c(cnn3CCOC)c2)c(C(N)=O)cc1F)[C@H](C)N [Example 006-313, 6-(((2S,3R)-2-aminopentan-3-yl)amino)-5-fluoro-2-((1-(2-methoxyethyl)-1H-indazol-5-yl)amino)nicotinamide]
< 10 nM	< 65 nM	CCC[C@@H](Nc1nc(Nc2ccc3c(cnn3CCOC)c2)c(C(N)=O)cc1F)[C@H](C)N [Example 006-314, 6-(((2S,3R)-2-aminohexan-3-yl)amino)-5-fluoro-2-((1-(2-methoxyethyl)-1H-indazol-5-yl)amino)nicotinamide]
